# Assay results from PubChem BioAssay (NCI).
# Where “and” joins values, the source holds several entries; their conditions need not be identical. Equal values may be shown once.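 Where inhibition never reached the appropriate level, the endpoint shown equals the highest concentration tested. Otherwise, values were interpolated linearly from a five-concentration, 48-hour dose response in 96-well plates. GI50 marks 50% less growth. TGI marks complete inhibition of growth.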
# Key:
# Assay in all cases: DTP human tumour cell line panel, 48 h
# 786-0 renal = test system: 786-0 renal
# SN12C renal = test system: SN12C renal
# SK-OV-3 ovarian = test system: SK-OV-3 ovarian
# MOLT-4 leukemia = test system: MOLT-4 leukemia
# SR leukemia = test system: SR leukemia
# OVCAR-5 ovarian = test system: OVCAR-5 ovarian
# ACHN renal = test system: ACHN renal
# COLO 205 colon = test system: COLO 205 colon
# K-562 leukemia = test system: K-562 leukemia
# HL-60(TB) leukemia = test system: HL-60(TB) leukemia
SMILES,GI50 (786-0 renal) [µM],TGI (786-0 renal),GI50 (SN12C renal) [µM],TGI (SN12C renal),GI50 (SK-OV-3 ovarian) [µM],TGI (SK-OV-3 ovarian),GI50 (MOLT-4 leukemia) [µM],TGI (MOLT-4 leukemia),TGI (SR leukemia) [µM],GI50 (OVCAR-5 ovarian) [µM],TGI (OVCAR-5 ovarian),GI50 (ACHN renal) [µM],TGI (ACHN renal),GI50 (COLO 205 colon) [µM],TGI (COLO 205 colon),GI50 (K-562 leukemia) [µM],TGI (K-562 leukemia),TGI (HL-60(TB) leukemia) [µM],GI50 (SR leukemia) [µM],GI50 (HL-60(TB) leukemia) [µM]
CCCC(=O)Nc1cc(C(=O)N2C[C@@H]3C[C@]34C2=CC(=O)c2[nH]cc(C)c24)n(COC)c1,1.81,15.2 µM and 3.72 µM,4.45,31.7 µM and 16.1 µM,4.32,43.8 µM and 17.9 µM,0.523,3.3 µM and 23.2 µM,2.09,3.86,50 µM and 10.6 µM,3.62,24.6 µM and 26.1 µM,1.83,12.9 µM and 4.26 µM,2.04,50 µM and > 100 µM,7.8,–,–
CCOC(=O)C1(Br)C(c2ccccc2)NC(=O)NC1(C)Br (configuration not stated),–,> 100 µM,–,> 100 µM,–,> 100 µM,–,> 73.7 µM,> 100,–,> 100 µM,–,> 100 µM,–,> 100 µM,–,> 94.5 µM,46.4,–,–
CCCCCCCNc1nc(C(=O)OCC)ncc1-c1ccc(C(F)(F)F)cc1,39.3,> 100 µM,33.8,> 100 µM,39.1,> 100 µM,34.4,96.2 µM,> 100,> 100,> 100 µM,32,> 100 µM,26.8,88.1 µM,36.8,> 100 µM,88.8,35.5,30.4
OCCCOC(c1ccccc1)(c1ccccc1)c1ccccc1,–,> 100 µM,–,> 100 µM,–,> 100 µM,–,> 100 µM,> 100,–,> 100 µM,–,> 100 µM,–,> 100 µM,–,> 100 µM,> 100,–,–
CC1CC2CC(=O)CC3(C1)C2CCCN3CCCO (configuration not stated),–,> 100 µM,–,> 100 µM,–,> 100 µM,–,> 100 µM,> 100,–,> 100 µM,–,> 100 µM,–,> 100 µM,–,> 100 µM,> 100,–,–
CC1(C)CC[C@H](Nc2ncc(C(F)(F)F)c(-c3c[nH]c4c(P(C)(C)=O)c(C#N)ccc34)n2)CN1,0.201,19.2 µM,0.141,32.2 µM,1.07,5.46 µM,0.214,> 23.2 µM,–,0.144,> 37.7 µM,0.0721,9.27 µM,< 0.01,0.773 µM,0.0219,> 45.9 µM,2.37,< 0.01,< 0.01
COc1ccc(Nc2ncc(Br)c(NCCCNC(=O)C3CCC3)n2)cc1,10.1,47.1 µM,5.45,62.7 µM,14.1,36.6 µM,5.92,> 100 µM,40.1,10.8,40.2 µM,13.5,> 100 µM,10.6,30.8 µM,9.27,> 100 µM,45.8,4.34,5.59
CCc1n(Cc2ccc3ccccc3n2)cc[n+]1Cc1ccc2ccccc2n1,31.2,> 100 µM,0.317,7.75 µM,1.39,15.1 µM,0.437,10.1 µM,12.5,1.48,22.9 µM,28,> 100 µM,0.0596,0.705 µM,0.493,16.1 µM,0.262,0.0753,0.0329
COc1ccc(-c2nc3sc(-c4ccc(Cl)cc4)cn3n2)cc1,1.06,2.41 µM,1.84,> 50 µM,11.7,> 50 µM,11.3,> 50 µM,26.1,2.78,> 50 µM,0.927,2.02 µM,2.65,> 50 µM,29.4,> 50 µM,> 50,4.53,> 50
O=C1C(c2c[nH]c3ccccc23)=C(c2c[nH]c3ccccc23)C(=O)N1O,> 25,> 25 µM,> 25,> 25 µM,> 25,> 25 µM,> 25,> 25 µM,> 25,> 25,> 25 µM,> 25,> 25 µM,> 25,> 25 µM,> 25,> 25 µM,> 25,> 25,> 25
COc1ccc(C2SCC(=O)N2NC(=O)C(O)c2ccccc2)cc1OC (configuration not stated),> 100,> 100 µM,> 100,> 100 µM,> 100,> 100 µM,> 100,> 100 µM,> 100,> 100,> 100 µM,> 100,> 100 µM,> 100,> 100 µM,> 100,> 100 µM,> 100,40.9,> 100
COc1ccc(N2Cc3cnc(Nc4ccccc4)nc3N([C@@H]3CC[C@@H](O)C3)C2=O)cc1,3.08,> 25 µM,1.31,> 25 µM,3.69,> 25 µM,2.61,> 17.8 µM,> 16.6,5.54,> 25 µM,0.984,> 25 µM,2.76,> 25 µM,5.67,> 25 µM,> 20.7,3.12,4.45
